The source of these data is patent publication US4393052A, “Antitumor anthracycline glycosides, their preparation, intermediates therefor, and compositions and use thereof” (priority 1980, dated 1983).

Each structure is given as a SMILES string. Converted amounts (≈) assume the structure as drawn. “And” between values parts separate entries of the source, which are not always exact repeats. Identical values can stand only once. Like-named read-outs stand apart in the source and are kept apart here.

For one series, the system named is P388 ascitic leukemia. Put plainly: Activity against P388 ascitic leukemia. The series is classed as in vivo, mice. The note with it: for T/C (median survival time of treated mice/median survival time of controls) / Toxicity deaths: day 1 after tumor inoculation. The method, then:
As regards the in vivo tests, preliminary experiments were carried out on P388 ascitic leukemia.
Activity against P388 ascitic leukemia. Treatment i.p. on day
1 after tumor inoculation.
^a Median survival time of treated mice/median survival time of […]

The subject of another series is HeLa cells. Put plainly: Activity on HeLa cells cloning efficiency in vitro. The series is classed as cell-based. The note with it: for ID50 / IC50: several values = separate experiments; for ID50: 1440 min; for activity on HeLa cells cloning efficiency in vitro (in words): compared with daunorubicin; for activity at 0.1 µg/mL: dose 100 ng/ml. An excerpt:
Activity on HeLa cells cloning efficiency in vitro. Treatment

Where [1] appears, read: 2.9 mg/kg i.p., data of 3 experiments.
Setting [2] is: HeLa cloning efficiency, treatment for 24 hours.
[3] abbreviates: Homo sapiens, HeLa, 24 h, HeLa cloning efficiency, treatment for 24 hours, read-out: ID50 (the source's name).
The mark [4] stands for this setting: Homo sapiens, HeLa, 24 h, 24 hours, read-out: % of controls.

`COc1cccc2c1C(=O)c1c(O)c3c(c(O)c1C2=O)C[C@@](O)(C(C)=O)C[C@@H]3O[C@H]1C[C@H](N)[C@H](O)[C@H](C)O1` [Daunorubicin, reference compound]: the “T/C (median survival time of treated mice/median survival time of controls)” value in the series with P388 ascitic leukemia (setting [1]) was 170% and 172% and 180%; in the series with P388 ascitic leukemia (4.4 mg/kg i.p.) it was 170% and 168% and 185%; in the series on P388 ascitic leukemia (6.6 mg/kg i.p.) it was 155% and 168% and 190%. The Toxicity deaths is 0/10 and 0/6 in the series with P388 ascitic leukemia (setting [1]); 1/10 and 0/6 and 0/10 in the series on P388 ascitic leukemia (4.4 mg/kg i.p.); 6/10 and 5/5 and 4/10 in the series with P388 ascitic leukemia (6.6 mg/kg i.p.). The molecule also had an ID50 in the series on HeLa cells (setting [2]) of 0.0083 µg/mL (≈ 0.0157 µM). The activity at 0.00625 µg/mL in the series with HeLa cells (Homo sapiens, HeLa, 24 h, read-out: % of controls, dose 6.25 ng/ml, 24 hours, data of 3 experiments) is 66%. Also, the IC50 in the series on HeLa cells (Homo sapiens, HeLa, 24 h, read-out: ID50, HeLa cloning efficiency, treatment for 24 hours) was determined as 0.009 µg/mL (≈ 0.0171 µM). For the same molecule, the “% of controls” value in the series on HeLa cells (dose 3.12 ng/ml, 24 hours, data of 3 experiments) is 105% and 100% and 70%; with HeLa cells (dose 6.25 ng/ml, 24 hours, data of 3 experiments) it was 69% and 57%.
Turning to `C=C1[C@@H](NC(=O)C(F)(F)F)C[C@H](O[C@H]2C[C@](O)(C(C)=O)Cc3c(O)c4c(c(O)c32)C(=O)c2c(OC)cccc2C4=O)O[C@H]1C` [IV-A, 4'-deoxy-4'-C-methylene-N-trifluoroacetyl-daunorubicin], the “T/C (median survival time of treated mice/median survival time of controls)” value with P388 ascitic leukemia (100 mg/kg i.p.) turned out to be 110%; in the series on P388 ascitic leukemia (200 mg/kg i.p.), 110%; in the series on P388 ascitic leukemia (400 mg/kg i.p.), 130%. The Toxicity deaths is on record as 0/5 in the series on P388 ascitic leukemia (100 mg/kg i.p.), 0/5 in the series with P388 ascitic leukemia (200 mg/kg i.p.) and 0/3 in the series on P388 ascitic leukemia (400 mg/kg i.p.). In the series on HeLa cells (setting [2]), the ID50 is 1.3 µg/mL (≈ 2.1 µM). Further, in the series on HeLa cells (setting [3]), the IC50 was determined as 1.6 µg/mL (≈ 2.58 µM). Also, the activity at 0.8 µg/mL in the series with HeLa cells (Homo sapiens, HeLa, 24 h, dose 800 ng/ml, 24 hours, read-out: % of controls) was determined as 115%. The activity at 3.2 µg/mL in the series with HeLa cells (Homo sapiens, HeLa, 24 h, dose 3200 ng/ml, 24 hours, read-out: % of controls) amounted to 7%. Moreover, in the series on HeLa cells, the “activity on HeLa cells cloning efficiency in vitro (in words)” value (from here on “activity … in vitro (in words)”) is reported as “markedly less active than daunorubicin”. Also, the “% of controls” value in the series on HeLa cells (dose 800 ng/ml, 24 hours) was found to be 116%.
With `COc1cccc2c1C(=O)c1c(O)c3c(c(O)c1C2=O)CC(O)(C(C)=O)CC3OC1CC(N)C(C)C(C)O1` (stereo not drawn) [V-B, 4'-deoxy-4'-epi-C-methyl-daunorubicin], the “T/C (median survival time of treated mice/median survival time of controls)” value in the series on P388 ascitic leukemia (4.4 mg/kg i.p.) came out at 130%; in the series on P388 ascitic leukemia (6.6 mg/kg i.p.), 140%; in the series with P388 ascitic leukemia (10.0 mg/kg i.p.), 140%. Moreover, the Toxicity deaths in the series with P388 ascitic leukemia (4.4 mg/kg i.p.) is reported as 0/10; with P388 ascitic leukemia (6.6 mg/kg i.p.), 0/10; with P388 ascitic leukemia (10.0 mg/kg i.p.) it was 0/9. Also, the IC50 in the series on HeLa cells (setting [3]) amounted to 0.0077 µg/mL (≈ 0.0147 µM). Moreover, the activity at 0.0062 µg/mL in the series on HeLa cells (Homo sapiens, HeLa, 24 h, dose 6.2 ng/ml, 24 hours, read-out: % of controls) turned out to be 54%. For the same molecule, the activity at 0.025 µg/mL with HeLa cells (Homo sapiens, HeLa, 24 h, dose 25 ng/ml, 24 hours, read-out: % of controls) worked out at 4%. In addition, the activity at 0.1 µg/mL with HeLa cells (setting [4]) was found to be 0%. Also, the “activity … in vitro (in words)” value in the series with HeLa cells is recorded as “maintained a high cytotoxic activity”.
With `COc1cccc2c1C(=O)c1c(O)c3c(c(O)c1C2=O)C[C@@](O)(C(C)=O)C[C@@H]3O[C@H]1C[C@H](N)[C@@](O)(CN)[C@H](C)O1` [V-C, 4'-C-aminomethyl-daunorubicin], the “T/C (median survival time of treated mice/median survival time of controls)” value worked out at 181% in the series with P388 ascitic leukemia (50 mg/kg i.p.), 172% in the series with P388 ascitic leukemia (100 mg/kg i.p.) and 204% in the series with P388 ascitic leukemia (200 mg/kg i.p.). Further, the Toxicity deaths in the series on P388 ascitic leukemia (50 mg/kg i.p.) was 0/6; in the series with P388 ascitic leukemia (100 mg/kg i.p.), 0/5; in the series with P388 ascitic leukemia (200 mg/kg i.p.) it was 0/4. In addition, the “antitumor activity compared with daunorubicin (in words)” value in the series on P388 ascitic leukemia (at a dose of 200 mg/kg) is reported as “more active than daunorubicin”. Besides, the IC50 in the series with HeLa cells (setting [3]) was found to be 1 µg/mL (≈ 1.8 µM). Also, the activity at 0.1 µg/mL with HeLa cells (setting [4]) stood at 143%. Also, in the series with HeLa cells (Homo sapiens, HeLa, 24 h, dose 400 ng/ml, 24 hours, read-out: % of controls), the activity at 0.4 µg/mL turned out to be 141%. Further, the activity at 1.6 µg/mL in the series with HeLa cells (Homo sapiens, HeLa, 24 h, dose 1600 ng/ml, 24 hours, read-out: % of controls) amounted to 3.8%. Further, the “activity … in vitro (in words)” value in the series with HeLa cells is “markedly less active than daunorubicin”.
